Experimental data reported in US20090060984A1, “ANIONIC SURFACTANTS LETHAL TO GRAM-POSITIVE BACTERIA” (priority 2007, published 2009).
Values joined by “and” are separate entries in the source; they are usually repeats but may differ in a detail not shown here. Equal entries are not always repeated. Where two headings read alike, the source gives them in different places.

Tests used:
Enterococcus fecalis = experiment: Growth on surfactant/TSA agar plates; assay type: cell-based; further: test concentration or dose not given here
[1] = test system: Staphylococcus epidermidis; experiment: Growth on surfactant/TSA agar plates; assay type: cell-based; conditions: Staphylococcus epidermidis strain EM3/ATCC12228
Streptococcus pyogenes = experiment: Growth on surfactant/TSA agar plates; assay type: cell-based; conditions: Streptococcus pyogenes strain EM14; further: test concentration or dose not given here
Bacillus subtilis = experiment: Growth on surfactant/TSA agar plates; assay type: cell-based; further: test concentration or dose not given here
Staphylococcus aureus = experiment: Growth on surfactant/TSA agar plates; assay type: cell-based; further: test concentration or dose not given here
Streptococcus agalactiae = experiment: Growth on surfactant/TSA agar plates; assay type: cell-based; conditions: Streptococcus agalactiae strain EM13
Streptococcus bovis = experiment: Growth on surfactant/TSA agar plates; assay type: cell-based; conditions: Streptococcus bovis strain EM12
Micrococcus luteus = experiment: Growth on surfactant/TSA agar plates; assay type: cell-based; conditions: Micrococcus luteus strain EM17
Streptococcus viridans = experiment: Growth on surfactant/TSA agar plates; assay type: cell-based; conditions: Streptococcus viridans strain EM8
E. coli = assay type: cell-based, Escherichia coli; conditions: 24 h contact time
Procedure: Escherichia coli ATCC 11229 (Culti-loops, Remel Europe, Dartford, Kent, UK) and Pseudomonas aeruginosa ATCC 15442 (Cuti-loops, Remel Europe, Dartford, Kent, UK) were selected as model Gram-negative organisms for the challenge testing of the antimicrobial coatings. Each bacterial strain was streaked for isolated colonies on Tryptic Soy Agar (TSA) plates (Difco, Becton Dickinson, Sparks, Md., U.S.A.) and incubated at 37° C. for 12 to 18 hours. Broth cultures were prepared by first picking 1-2 isolated colonies from TSA plates and inoculating 5 mL Tryptic Soy Broth (TSB; Difco, Becton Dickinson, Sparks, Md., U.S.A.) in a 16 mm test tube. This culture was grown in a shaking water bath at 150 RPM for 8 hours at 37° C. After the eight hours, 125 μL of this culture was added to 50 mL of TSB in a side-arm Klett flask and grown for approximately 8 hours in shaking water bath (150 RPM) at 37° C. The bacterial broths were grown to an A590 of 1.2-1.5, which correlated to approximately 10^9 CFU (colony forming units)/mL. 25 mL of this broth were transferred to a sterile 30 mL Oakridge tube and centrifuged at 12,000×g for 10 minutes at 4° C. (Sorval SS34 rotor) to pelletize the bacteria. The bacterial pellet was washed once and resuspended in 25 mL of phosphate buffer solution (PBS; BBL, FTA Hemaglutination Buffer, Becton Dickinson, Sparks, Md., U.S.A.). The suspension was diluted with PBS to achieve the target range of 10^5-10^6 CFU/mL and used to inoculate the slides containing antibacterial coatings.
Xylene/methanol (5:1 by weight) is used to dissolve the silver surfactants to facilitate homogeneously mixing with the alkyd resin composition.
A minus sign (−) denotes no growth, a plus sign (+) denotes confluent growth, and a capital P (P) denotes […].
Xylene/methanol (5:1 by weight) is used to dissolve the silver surfactants to facilitate homogeneously mixing with the acrylic resin composition.
The same laboratory experimental solvent based acrylic paint described in Example 34 is used to challenge E. coli by adding various levels of the invention silver anionic surfactants as described in Example 34.
A commercially available 2K epoxy resin paint is obtained from a local paint store (Sherwin Williams High Solids Epoxy Tile Clad HS; Part A B62WC11; Part B B60VZ75, The Sherwin Williams Company) and the same silver anionic surfactants described in Example 35 are used to prepare test coatings on microscope slides containing various levels of silver ion. These surfactants are dissolved in xylene/methanol (5:1 by weight) to facilitate their quantitative addition to the coating mixture.

[2] = Enterococcus fecalis strain EM19 (first listing)
[3] = Enterococcus fecalis strain EM19 (second listing)
[4] = Bacillus subtilis strain ATCC33
[5] = Staphylococcus aureus strain ATCC6538
[6] = Staphylococcus aureus strain EM24/ATCC25923
[7] = laboratory solvent based acrylic paint

CC(C)CC(C)OC(=O)CC(C(=O)OC(C)CC(C)C)S(=O)(=O)[O-].[Na+] (stereo not shown) [Compound S4]
No Growth(−)/Full Growth(+), replicate columns (Enterococcus fecalis; [2]): + | No Growth(−)/Full Growth(+), replicate columns (Enterococcus fecalis; [3]): + | No Growth(−)/Full Growth(+), replicate columns [1]: + | No Growth(−)/Full Growth(+), replicate columns (Streptococcus pyogenes): − | No Growth(−)/Full Growth(+), replicate columns (Bacillus subtilis; [4]): − and + | No Growth(−)/Full Growth(+), replicate columns (Bacillus subtilis; Bacillus subtilis strain EM27): + | No Growth(−)/Full Growth(+), replicate columns (Staphylococcus aureus; [5]): + | No Growth(−)/Full Growth(+), replicate columns (Staphylococcus aureus; [6]): + | No Growth(−)/Full Growth(+), replicate columns (Streptococcus agalactiae): − and + | No Growth(−)/Full Growth(+), replicate columns (Streptococcus bovis): − | No Growth(−)/Full Growth(+), replicate columns (Micrococcus luteus): − (2×) and + | No Growth(−)/Full Growth(+), replicate columns (Streptococcus viridans): +

CCCCC(CC)COP(=O)([O-])OCCC(CC)CCC.[Na+] (stereo not shown) [Compound S2]
No Growth(−)/Full Growth(+), replicate columns (Enterococcus fecalis; [2]): − | No Growth(−)/Full Growth(+), replicate columns (Enterococcus fecalis; [3]): − | No Growth(−)/Full Growth(+), replicate columns [1]: − | No Growth(−)/Full Growth(+), replicate columns (Streptococcus pyogenes): − | No Growth(−)/Full Growth(+), replicate columns (Bacillus subtilis; [4]): − | No Growth(−)/Full Growth(+), replicate columns (Bacillus subtilis; Bacillus subtilis strain EM27): − | No Growth(−)/Full Growth(+), replicate columns (Staphylococcus aureus; [5]): − | No Growth(−)/Full Growth(+), replicate columns (Staphylococcus aureus; [6]): − | No Growth(−)/Full Growth(+), replicate columns (Streptococcus agalactiae): − | No Growth(−)/Full Growth(+), replicate columns (Streptococcus bovis): − | No Growth(−)/Full Growth(+), replicate columns (Micrococcus luteus): − | No Growth(−)/Full Growth(+), replicate columns (Streptococcus viridans): −

CCCCCCCCCCCCCCCCCCNC(=O)CC(C(=O)[O-])S(=O)(=O)[O-].[Na+].[Na+] (stereo not shown) [Compound S3]
No Growth(−)/Full Growth(+), replicate columns (Enterococcus fecalis; [2]): − | No Growth(−)/Full Growth(+), replicate columns (Enterococcus fecalis; [3]): + | No Growth(−)/Full Growth(+), replicate columns [1]: − | No Growth(−)/Full Growth(+), replicate columns (Streptococcus pyogenes): − | No Growth(−)/Full Growth(+), replicate columns (Bacillus subtilis; [4]): − | No Growth(−)/Full Growth(+), replicate columns (Bacillus subtilis; Bacillus subtilis strain EM27): − | No Growth(−)/Full Growth(+), replicate columns (Staphylococcus aureus; [5]): − | No Growth(−)/Full Growth(+), replicate columns (Staphylococcus aureus; [6]): − | No Growth(−)/Full Growth(+), replicate columns (Streptococcus agalactiae): − | No Growth(−)/Full Growth(+), replicate columns (Streptococcus bovis): − | No Growth(−)/Full Growth(+), replicate columns (Micrococcus luteus): − | No Growth(−)/Full Growth(+), replicate columns (Streptococcus viridans): +

CCCCCCCCCCCCOS(=O)(=O)[O-].[Ag+] [AgDS, Silver dodecylsufate]
E. coli growth on coating (E. coli; alkyd resin paint, 0.0012 weight % Ag in coating): + | E. coli growth on coating (E. coli; alkyd resin paint, 0.003 weight % Ag in coating): + | E. coli growth on coating (E. coli; alkyd resin paint, 0.006 weight % Ag in coating): + | E. coli growth on coating (E. coli; alkyd resin paint, 0.012 weight % Ag in coating): + | E. coli growth on coating (E. coli; alkyd resin paint, 0.03 weight % Ag in coating): − | E. coli growth on coating (E. coli; alkyd resin paint, 0.06 weight % Ag in coating): − | E. coli growth on coating (E. coli; alkyd resin paint, 0.12 weight % Ag in coating): − | E. coli growth on coating (E. coli; commercial 2K epoxy paint, 0.0012 weight % Ag in coating): + | E. coli growth on coating (E. coli; commercial 2K epoxy paint, 0.003 weight % Ag in coating): + | E. coli growth on coating (E. coli; commercial 2K epoxy paint, 0.006 weight % Ag in coating): + | E. coli growth on coating (E. coli; commercial 2K epoxy paint, 0.03 weight % Ag in coating): − | E. coli growth on coating (E. coli; commercial 2K epoxy paint, 0.06 weight % Ag in coating): − | E. coli growth on coating (E. coli; commercial 2K epoxy paint, 0.12 weight % Ag in coating): − | Silver level giving complete inhibition of growth (E. coli; commercial 2K epoxy paint): 0.03 % w/w | Silver level partially effective (E. coli; commercial 2K epoxy paint): 0.012 % w/w | E. coli growth on coating (E. coli; commercial solvent borne acrylate paint, 0.0012 weight % Ag in coating): + | E. coli growth on coating (E. coli; commercial solvent borne acrylate paint, 0.003 weight % Ag in coating): + | E. coli growth on coating (E. coli; commercial solvent borne acrylate paint, 0.006 weight % Ag in coating): + | E. coli growth on coating (E. coli; commercial solvent borne acrylate paint, 0.012 weight % Ag in coating): + | E. coli growth on coating (E. coli; commercial solvent borne acrylate paint, 0.03 weight % Ag in coating): − | E. coli growth on coating (E. coli; commercial solvent borne acrylate paint, 0.06 weight % Ag in coating): − | E. coli growth on coating (E. coli; commercial solvent borne acrylate paint, 0.12 weight % Ag in coating): − | Silver level effective at preventing any growth (E. coli; commercial solvent borne acrylic paint): completely effective at this lower level | Silver level preventing any growth (E. coli; [7]): 0.03 % w/w | Silver level with partial inhibition (E. coli; [7]): 0.012% | E. coli growth on coating (E. coli; laboratory solvent borne acrylate paint, 0.0012 weight % Ag in coating): + | E. coli growth on coating (E. coli; laboratory solvent borne acrylate paint, 0.003 weight % Ag in coating): + | E. coli growth on coating (E. coli; laboratory solvent borne acrylate paint, 0.006 weight % Ag in coating): + | E. coli growth on coating (E. coli; laboratory solvent borne acrylate paint, 0.03 weight % Ag in coating): − | E. coli growth on coating (E. coli; laboratory solvent borne acrylate paint, 0.06 weight % Ag in coating): − | E. coli growth on coating (E. coli; laboratory solvent borne acrylate paint, 0.12 weight % Ag in coating): −

CCCCCCCCCCCCCOC(=O)CC(C(=O)OCCCCCCCCCCCCC)S(=O)(=O)[O-].[Na+] (stereo not shown) [Compound S6]
No Growth(−)/Full Growth(+), replicate columns (Enterococcus fecalis; [2]): + | No Growth(−)/Full Growth(+), replicate columns (Enterococcus fecalis; [3]): + | No Growth(−)/Full Growth(+), replicate columns [1]: + | No Growth(−)/Full Growth(+), replicate columns (Streptococcus pyogenes): − | No Growth(−)/Full Growth(+), replicate columns (Bacillus subtilis; [4]): + (2×) and − | No Growth(−)/Full Growth(+), replicate columns (Bacillus subtilis; Bacillus subtilis strain EM27): − (2×) and + | No Growth(−)/Full Growth(+), replicate columns (Staphylococcus aureus; [5]): + | No Growth(−)/Full Growth(+), replicate columns (Staphylococcus aureus; [6]): + | No Growth(−)/Full Growth(+), replicate columns (Streptococcus agalactiae): − (2×) and + | No Growth(−)/Full Growth(+), replicate columns (Streptococcus bovis): − | No Growth(−)/Full Growth(+), replicate columns (Micrococcus luteus): + | No Growth(−)/Full Growth(+), replicate columns (Streptococcus viridans): +

O=C(CC(C(=O)OC1CCCCC1)S(=O)(=O)[O-])OC1CCCCC1.[Na+] (stereo not shown) [Compound S5]
No Growth(−)/Full Growth(+), replicate columns (Enterococcus fecalis; [2]): + | No Growth(−)/Full Growth(+), replicate columns (Enterococcus fecalis; [3]): + | No Growth(−)/Full Growth(+), replicate columns [1]: + | No Growth(−)/Full Growth(+), replicate columns (Streptococcus pyogenes): − | No Growth(−)/Full Growth(+), replicate columns (Bacillus subtilis; [4]): − | No Growth(−)/Full Growth(+), replicate columns (Bacillus subtilis; Bacillus subtilis strain EM27): − and + | No Growth(−)/Full Growth(+), replicate columns (Staphylococcus aureus; [5]): + | No Growth(−)/Full Growth(+), replicate columns (Staphylococcus aureus; [6]): + | No Growth(−)/Full Growth(+), replicate columns (Streptococcus agalactiae): − (2×) and + | No Growth(−)/Full Growth(+), replicate columns (Streptococcus bovis): − | No Growth(−)/Full Growth(+), replicate columns (Micrococcus luteus): + and − (2×) | No Growth(−)/Full Growth(+), replicate columns (Streptococcus viridans): +
